Test results from patent publication US20250144067A1, “PERSONALIZED STARVATION THERAPY FOR CANCER” (Faeth Therapeutics, Inc., priority 2021, published 2025).
Counter-ions that a name gives are not always drawn.

tested on: NCI-H292 lung cancer cells; test: FDA drug screening, complete media vs cholesterol-free media with simvastatin (TABLE 2); format: cell-based, human; conditions: not given

**Q.** For `Cc1nc2n(c(=O)c1CCN1CCC(c3noc4cc(F)ccc34)CC1)CCCC2` [Risperidone], which “Cholesterol-free media + simvastatin (0.04 μM)” value is on record?
**A.** 0.9957

**Q.** What about the Difference of the same molecule?
**A.** 0.16

**Q.** What does the source list for `C=CC[N+]1([C@H]2C[C@H]3[C@@H]4CC[C@H]5C[C@H](O)[C@@H](N6CCOCC6)C[C@]5(C)[C@H]4CC[C@]3(C)[C@H]2OC(C)=O)CCCC1.[Br-]` [Rocuronium (Bromide)]?
**A.** Cholesterol-free media + simvastatin (0.04 μM): 0.8493; Complete Media: 1.097; Difference: 0.25

same assay, conditions: NCI-H292 cells, FDA drug library screen, cholesterol-free media with simvastatin 0.04 μM

**Q.** With `CC(N)C12CC3CC(CC(C3)C1)C2` (centres unmarked) [Rimantadine (hydrochloride)] as the molecule, how does the “Cholesterol-free media + simvastatin (0.04 μM)” value read?
**A.** 0.9474

**Q.** Which “Cholesterol-free media + simvastatin (0.04 μM)” value does the source give for `CC(NCCc1ccc(O)cc1)C(O)c1ccc(O)cc1` (centres unmarked) [Ritodrine (hydrochloride)] here?
**A.** 1.064

**Q.** Which “Cholesterol-free media + simvastatin (0.04 μM)” value does the source give for `O=C(NC[C@H]1CN(c2ccc(N3CCOCC3=O)cc2)C(=O)O1)c1ccc(Cl)s1` [Rivaroxaban] here?
**A.** 1.199

**Q.** `CN(C)CCc1c[nH]c2ccc(Cn3cncn3)cc12.O=C(O)c1ccccc1` [Rizatriptan (benzoate)] was tested. Which “Cholesterol-free media + simvastatin (0.04 μM)” value did it give?
**A.** 1.054

**Q.** With `CS(=O)(=O)c1ccc(C2=C(c3ccccc3)C(=O)OC2)cc1` [Rofecoxib] as the molecule, how does the “Cholesterol-free media + simvastatin (0.04 μM)” value read?
**A.** 1.252

**Q.** With `C[C@@H](OC[C@@]1(c2ccccc2)CC[C@]2(CCC(=O)N2)CN1)c1cc(C(F)(F)F)cc(C(F)(F)F)c1` [Rolapitant] as the molecule, how does the “Cholesterol-free media + simvastatin (0.04 μM)” value read?
**A.** 1.001

**Q.** For `Cn1c([N+](=O)[O-])cnc1COC(N)=O` [Ronidazole], which “Cholesterol-free media + simvastatin (0.04 μM)” value is on record?
**A.** 0.9748

**Q.** `CCCN(CCC)CCc1cccc2c1CC(=O)N2` [Ropinirole (hydrochloride)] was tested. Which “Cholesterol-free media + simvastatin (0.04 μM)” value did it give?
**A.** 0.879

**Q.** How did the “Cholesterol-free media + simvastatin (0.04 μM)” value turn out when `CCCN1CCCC[C@H]1C(=O)Nc1c(C)cccc1C.CS(=O)(=O)O` [Ropivacaine (mesylate)] was run?
**A.** 0.9302

**Q.** For `CN(CCOc1ccc(CC2SC(=O)NC2=O)cc1)c1ccccn1` (centres unmarked) [Rosiglitazone], which “Cholesterol-free media + simvastatin (0.04 μM)” value is on record?
**A.** 1.707

same assay, conditions: NCI-H292 cells, FDA drug library screen, complete media

**Q.** How did the “Complete Media” value turn out when `CC(N)C12CC3CC(CC(C3)C1)C2` (centres unmarked) [Rimantadine (hydrochloride)] was run?
**A.** 0.8656

**Q.** With `CC(NCCc1ccc(O)cc1)C(O)c1ccc(O)cc1` (centres unmarked) [Ritodrine (hydrochloride)] as the molecule, how does the “Complete Media” value read?
**A.** 0.9618

**Q.** For `O=C(NC[C@H]1CN(c2ccc(N3CCOCC3=O)cc2)C(=O)O1)c1ccc(Cl)s1` [Rivaroxaban], which “Complete Media” value is on record?
**A.** 1.057

**Q.** Which “Complete Media” value does the source give for `CN(C)CCc1c[nH]c2ccc(Cn3cncn3)cc12.O=C(O)c1ccccc1` [Rizatriptan (benzoate)] here?
**A.** 0.9799

**Q.** Which “Complete Media” value does the source give for `C[C@@H](OC[C@@]1(c2ccccc2)CC[C@]2(CCC(=O)N2)CN1)c1cc(C(F)(F)F)cc(C(F)(F)F)c1` [Rolapitant] here?
**A.** 0.9304

**Q.** With `Cn1c([N+](=O)[O-])cnc1COC(N)=O` [Ronidazole] as the molecule, how does the “Complete Media” value read?
**A.** 1.335

**Q.** `CCCN(CCC)CCc1cccc2c1CC(=O)N2` [Ropinirole (hydrochloride)] was tested. Which “Complete Media” value did it give?
**A.** 1.185

**Q.** With `CN(CCOc1ccc(CC2SC(=O)NC2=O)cc1)c1ccccn1` (centres unmarked) [Rosiglitazone] as the molecule, how does the “Complete Media” value read?
**A.** 1.955

same assay, conditions: complete media minus cholesterol-free media + simvastatin; >0 enhanced anti-cancer activity, about 0 neutral, <0 antagonist

**Q.** For `Cn1c([N+](=O)[O-])cnc1COC(N)=O` [Ronidazole], which Difference is on record?
**A.** 0.36

**Q.** How did the Difference turn out when `CCCN(CCC)CCc1cccc2c1CC(=O)N2` [Ropinirole (hydrochloride)] was run?
**A.** 0.31

**Q.** `CCCN1CCCC[C@H]1C(=O)Nc1c(C)cccc1C.CS(=O)(=O)O` [Ropivacaine (mesylate)] was tested. Which Difference did it give?
**A.** 0.22

**Q.** How did the Difference turn out when `CN(CCOc1ccc(CC2SC(=O)NC2=O)cc1)c1ccccn1` (centres unmarked) [Rosiglitazone] was run?
**A.** 0.25

same assay, conditions: complete media vs cholesterol-free media + simvastatin (0.04 μM); >0 enhanced anti-cancer activity, about 0 neutral, <0 antagonist

**Q.** How did the Difference turn out when `CC(N)C12CC3CC(CC(C3)C1)C2` (centres unmarked) [Rimantadine (hydrochloride)] was run?
**A.** −0.08

**Q.** Which Difference does the source give for `CC(NCCc1ccc(O)cc1)C(O)c1ccc(O)cc1` (centres unmarked) [Ritodrine (hydrochloride)] here?
**A.** −0.10

**Q.** For `O=C(NC[C@H]1CN(c2ccc(N3CCOCC3=O)cc2)C(=O)O1)c1ccc(Cl)s1` [Rivaroxaban], which Difference is on record?
**A.** −0.14

**Q.** For `CS(=O)(=O)c1ccc(C2=C(c3ccccc3)C(=O)OC2)cc1` [Rofecoxib], which Difference is on record?
**A.** −0.11

**Q.** `C[C@@H](OC[C@@]1(c2ccccc2)CC[C@]2(CCC(=O)N2)CN1)c1cc(C(F)(F)F)cc(C(F)(F)F)c1` [Rolapitant] was tested. Which Difference did it give?
**A.** −0.07

same assay, conditions: complete media vs cholesterol-free media + simvastatin (0.04 μM); […]

**Q.** `CN(C)CCc1c[nH]c2ccc(Cn3cncn3)cc12.O=C(O)c1ccccc1` [Rizatriptan (benzoate)] was tested. Which Difference did it give?
**A.** −0.07

tested on: NCI-H292 lung cancer cells; test: FDA drug screening, complete media vs cholesterol-free media without statin (TABLE 1); format: cell-based, human; conditions: not given

**Q.** Which results are given for `Cc1nc2n(c(=O)c1CCN1CCC(c3noc4cc(F)ccc34)CC1)CCCC2` [Risperidone]?
**A.** Cholesterol-free: 1.099; Complete: 0.9616; Difference: −0.14

**Q.** What does the source list for `C=CC[N+]1([C@H]2C[C@H]3[C@@H]4CC[C@H]5C[C@H](O)[C@@H](N6CCOCC6)C[C@]5(C)[C@H]4CC[C@]3(C)[C@H]2OC(C)=O)CCCC1.[Br-]` [Rocuronium (Bromide)]?
**A.** Cholesterol-free: 0.9624; Complete: 0.9092; Difference: −0.05

same assay, conditions: Complete minus Cholesterol-free; >0 enhanced anti-cancer activity, about 0 neutral, <0 antagonist

**Q.** How did the Difference turn out when `O=C(NC[C@H]1CN(c2ccc(N3CCOCC3=O)cc2)C(=O)O1)c1ccc(Cl)s1` [Rivaroxaban] was run?
**A.** −0.30

**Q.** How did the Difference turn out when `C[C@@H](OC[C@@]1(c2ccccc2)CC[C@]2(CCC(=O)N2)CN1)c1cc(C(F)(F)F)cc(C(F)(F)F)c1` [Rolapitant] was run?
**A.** −0.04

**Q.** How did the Difference turn out when `CN(CCOc1ccc(CC2SC(=O)NC2=O)cc1)c1ccccn1` (centres unmarked) [Rosiglitazone] was run?
**A.** −0.21

same assay, conditions: Complete minus Cholesterol-free; […]

**Q.** `CN(C)CCc1c[nH]c2ccc(Cn3cncn3)cc12.O=C(O)c1ccccc1` [Rizatriptan (benzoate)] was tested. Which Difference did it give?
**A.** 0.02

same assay, conditions: NCI-H292 cells, cholesterol-free media without statin

**Q.** Which Cholesterol-free does the source give for `CC(NCCc1ccc(O)cc1)C(O)c1ccc(O)cc1` (centres unmarked) [Ritodrine (hydrochloride)] here?
**A.** 1.435

**Q.** Which Cholesterol-free does the source give for `O=C(NC[C@H]1CN(c2ccc(N3CCOCC3=O)cc2)C(=O)O1)c1ccc(Cl)s1` [Rivaroxaban] here?
**A.** 1.076

**Q.** With `Cn1c([N+](=O)[O-])cnc1COC(N)=O` [Ronidazole] as the molecule, how does the Cholesterol-free read?
**A.** 1.54

**Q.** How did the Cholesterol-free turn out when `CCCN(CCC)CCc1cccc2c1CC(=O)N2` [Ropinirole (hydrochloride)] was run?
**A.** 1.101

**Q.** For `CCCN1CCCC[C@H]1C(=O)Nc1c(C)cccc1C.CS(=O)(=O)O` [Ropivacaine (mesylate)], which Cholesterol-free is on record?
**A.** 1.155

**Q.** How did the Cholesterol-free turn out when `CN(CCOc1ccc(CC2SC(=O)NC2=O)cc1)c1ccccn1` (centres unmarked) [Rosiglitazone] was run?
**A.** 1.222

same assay, conditions: NCI-H292 cells, cholesterol-free media without statin, FDA drug library screen

**Q.** Which Cholesterol-free does the source give for `CC(N)C12CC3CC(CC(C3)C1)C2` (centres unmarked) [Rimantadine (hydrochloride)] here?
**A.** 0.8509

**Q.** Which Cholesterol-free does the source give for `CN(C)CCc1c[nH]c2ccc(Cn3cncn3)cc12.O=C(O)c1ccccc1` [Rizatriptan (benzoate)] here?
**A.** 0.4266

**Q.** Which Cholesterol-free does the source give for `CS(=O)(=O)c1ccc(C2=C(c3ccccc3)C(=O)OC2)cc1` [Rofecoxib] here?
**A.** 1.041

**Q.** With `C[C@@H](OC[C@@]1(c2ccccc2)CC[C@]2(CCC(=O)N2)CN1)c1cc(C(F)(F)F)cc(C(F)(F)F)c1` [Rolapitant] as the molecule, how does the Cholesterol-free read?
**A.** 0.9892

same assay, conditions: NCI-H292 cells, complete media

**Q.** `CC(NCCc1ccc(O)cc1)C(O)c1ccc(O)cc1` (centres unmarked) [Ritodrine (hydrochloride)] was tested. Which Complete did it give?
**A.** 0.972

**Q.** With `O=C(NC[C@H]1CN(c2ccc(N3CCOCC3=O)cc2)C(=O)O1)c1ccc(Cl)s1` [Rivaroxaban] as the molecule, how does the Complete read?
**A.** 0.7773

**Q.** With `Cn1c([N+](=O)[O-])cnc1COC(N)=O` [Ronidazole] as the molecule, how does the Complete read?
**A.** 1.069

**Q.** How did the Complete turn out when `CCCN(CCC)CCc1cccc2c1CC(=O)N2` [Ropinirole (hydrochloride)] was run?
**A.** 0.7874

**Q.** Which Complete does the source give for `CCCN1CCCC[C@H]1C(=O)Nc1c(C)cccc1C.CS(=O)(=O)O` [Ropivacaine (mesylate)] here?
**A.** 0.7954

**Q.** Which Complete does the source give for `CN(CCOc1ccc(CC2SC(=O)NC2=O)cc1)c1ccccn1` (centres unmarked) [Rosiglitazone] here?
**A.** 1.017

same assay, conditions: NCI-H292 cells, complete media, FDA drug library screen

**Q.** How did the Complete turn out when `CC(N)C12CC3CC(CC(C3)C1)C2` (centres unmarked) [Rimantadine (hydrochloride)] was run?
**A.** 1.649

**Q.** Which Complete does the source give for `CN(C)CCc1c[nH]c2ccc(Cn3cncn3)cc12.O=C(O)c1ccccc1` [Rizatriptan (benzoate)] here?
**A.** 0.447

**Q.** Which Complete does the source give for `C[C@@H](OC[C@@]1(c2ccccc2)CC[C@]2(CCC(=O)N2)CN1)c1cc(C(F)(F)F)cc(C(F)(F)F)c1` [Rolapitant] here?
**A.** 0.9523

same assay, conditions: complete vs cholesterol-free media; >0 enhanced anti-cancer activity, about 0 neutral, <0 antagonist

**Q.** How did the Difference turn out when `CC(N)C12CC3CC(CC(C3)C1)C2` (centres unmarked) [Rimantadine (hydrochloride)] was run?
**A.** 0.80

**Q.** For `CS(=O)(=O)c1ccc(C2=C(c3ccccc3)C(=O)OC2)cc1` [Rofecoxib], which Difference is on record?
**A.** 0.11

same assay, conditions: complete vs cholesterol-free media; greater than 0 enhanced anti-cancer activity, about 0 neutral, below 0 antagonists

**Q.** `CC(NCCc1ccc(O)cc1)C(O)c1ccc(O)cc1` (centres unmarked) [Ritodrine (hydrochloride)] was tested. Which Difference did it give?
**A.** −0.46

**Q.** For `Cn1c([N+](=O)[O-])cnc1COC(N)=O` [Ronidazole], which Difference is on record?
**A.** −0.47

**Q.** For `CCCN(CCC)CCc1cccc2c1CC(=O)N2` [Ropinirole (hydrochloride)], which Difference is on record?
**A.** −0.31

**Q.** How did the Difference turn out when `CCCN1CCCC[C@H]1C(=O)Nc1c(C)cccc1C.CS(=O)(=O)O` [Ropivacaine (mesylate)] was run?
**A.** −0.36
